Measurements from paper PMC11494653, “Teixobactin “Swapmers” with L Tail Stereochemistry Retain Antibiotic Activity” (The Journal of Organic Chemistry, 2024).
≈ marks a conversion by molar mass, not a printed value. Positions of bridges follow the written chain, without caps; N, C: chain ends. Non-standard residues stand in square brackets, D forms with d. Residues, ends and D or L forms follow the SMILES beside them. Chains are numbered I, II in the order given. d(aIle) = CC[C@H](C)[C@@H](N)C(=O)O; dNMeF = CN[C@H](Cc1ccccc1)C(=O)O; Nphe = O=C(O)CNCc1ccccc1

Key:
Assay type in all cases: cell-based
all bacteria tested = assay: MIC broth microdilution assay, summary over all bacteria; details: all bacteria tested other than B. subtilis
Description: (§1) We determined the MIC values of these teixobactin swapmer prodrugs against the Gram-positive bacteria Bacillus subtilis, Staphylococcus epidermidis, methicillin-susceptible Staphylococcus aureus (MSSA), and methicillin-resistant Staphylococcus aureus (MRSA) in a broth microdilution assay as described previously.[9],[10] We used the antibiotic vancomycin as a positive control and the Gram-negative bacterium Escherichia coli as a negative control. The MIC values for Lys10-teixobactin 1, Lys10-teixobactin prodrug 2, Arg10-teixobactin 6, and Arg10-teixobactin prodrug 7 are shown in Table 1 for comparison with the swapmer analogues.
(§2) We performed minimum inhibitory concentration (MIC) assays as previously described.[9] A concise procedure is detailed below.
(§3) Stock solutions of teixobactin analogues were prepared gravimetrically by dissolving an appropriate amount of peptide in 20 mg/mL sterile DMSO. The stock solutions were stored at −20 °C for subsequent experiments.
Bacillus subtilis (ATCC 6051), Staphylococcus epidermidis (ATCC 14990), methicillin-susceptible Staphylococcus aureus (MSSA) (ATCC 29213), and Escherichia coli (ATCC 10798) were cultured from glycerol stocks in Mueller-Hinton broth containing 0.002% polysorbate 80 overnight in a shaking incubator at 37 °C. Methicillin-resistant Staphylococcus aureus (MRSA) (ATCC 700698) was cultured from a glycerol stock in brain hearth infusion broth containing 0.002% polysorbate 80 overnight in a shaking incubator at 37 °C. […] Briefly, we have previously determined the CFU/mL for each bacterium at OD600 = 0.075 for 200 μL of bacterial culture in a 96-well plate. The OD600 of each overnight culture was determined, and then each culture was diluted to OD600 = 0.075. […]
Aliquots of the 20 mg/mL peptide stock solutions were diluted to make a 64 μg/mL solution in Mueller-Hinton broth containing 0.002% polysorbate 80 and a 64 μg/mL solution in brain heart infusion broth containing 0.002% polysorbate 80. […] The optical density measurements were measured at 600 nm using a 96-well UV–vis plate reader (MultiSkan GO, Thermo Scientific). […]

[1] = tested on: Escherichia coli ATCC 10798; assay: microbe, parasite or virus in culture; details: for MIC Escherichia coli ATCC 10798: ATCC 10798, 16 h
Description: as §1, §2, §3
(§4) Bacillus subtilis (ATCC 6051), Staphylococcus epidermidis (ATCC 14990), methicillin-susceptible Staphylococcus aureus (MSSA) (ATCC 29213), and Escherichia coli (ATCC 10798) were cultured from glycerol stocks in Mueller-Hinton broth containing 0.002% polysorbate 80 overnight in a shaking incubator at 37 °C. Methicillin-resistant Staphylococcus aureus (MRSA) (ATCC 700698) was cultured from a glycerol stock in brain hearth infusion broth containing 0.002% polysorbate 80 overnight in a shaking incubator at 37 °C. After overnight incubation, each culture was diluted with the appropriate media (containing 0.002% polysorbate 80) to 1 × 10^6 colony-forming units (CFU)/mL as previously described.[12],[15],[16] Briefly, we have previously determined the CFU/mL for each bacterium at OD600 = 0.075 for 200 μL of bacterial culture in a 96-well plate. The OD600 of each overnight culture was determined, and then each culture was diluted to OD600 = 0.075. Cultures were further diluted to achieve 1 × 10^6 CFU/mL solutions.
(§5) Aliquots of the 20 mg/mL peptide stock solutions were diluted to make a 64 μg/mL solution in Mueller-Hinton broth containing 0.002% polysorbate 80 and a 64 μg/mL solution in brain heart infusion broth containing 0.002% polysorbate 80. The solutions were mixed by pipetting to ensure homogeneity. A 200-μL aliquot of a 64 μg/mL solution was transferred to a 96-well plate. 2-fold serial dilutions were made with media containing 0.002% polysorbate 80 across the 96-well plate to achieve a final volume of 100 μL in each well (initial concentrations ranging from 64 to 0.0625 μg/mL). A 100-μL aliquot of a 1 × 10^6 CFU/mL bacterial solution was added to each well in the series, resulting in final bacterial concentrations of 5 × 10^5 CFU/mL in each well. As 100 μL of bacteria were added to each well, the concentration of peptide was also diluted 2-fold (final concentrations ranging from 32 μg/mL to 0.03125 μg/mL). Each plate was covered with a lid and incubated at 37 °C for 16 h. The optical density measurements were measured at 600 nm using a 96-well UV–vis plate reader (MultiSkan GO, Thermo Scientific). The MIC values were taken as the lowest concentration that had no bacterial growth. MIC assays for each compound were performed in triplicate to ensure reproducibility.

[2] = tested on: Staphylococcus epidermidis ATCC 14990; assay: microbe, parasite or virus in culture; details: for MIC Staphylococcus epidermidis ATCC 14990: ATCC 14990, 16 h
Description: as §1, §2, §3, §4, §5

[3] = tested on: Bacillus subtilis ATCC 6051; assay: microbe, parasite or virus in culture
Description: as §1, §2, §3, §4, §5

[4] = tested on: Staphylococcus aureus (MSSA) ATCC 29213; assay: microbe, parasite or virus in culture; details: for MIC Staphylococcus aureus (MSSA) ATCC 29213: ATCC 29213, 16 h
Description: as §1, §2, §3, §4, §5

[5] = tested on: Staphylococcus aureus (MRSA) ATCC 700698; assay: microbe, parasite or virus in culture; details: for MIC Staphylococcus aureus (MRSA) ATCC 700698: ATCC 700698, 16 h
Description: as §1, §2, §3, §4, §5

[6] = tested on: Gram-positive bacteria tested; details: 16 h
Description: as §1, §2, §3, §4
Aliquots of the 20 mg/mL peptide stock solutions were diluted to make a 64 μg/mL solution in Mueller-Hinton broth containing 0.002% polysorbate 80 and a 64 μg/mL solution in brain heart infusion broth containing 0.002% polysorbate 80. The solutions were mixed by pipetting to ensure homogeneity. A 200-μL aliquot of a 64 μg/mL solution was transferred to a 96-well plate. 2-fold serial dilutions were made with media containing 0.002% polysorbate 80 across the 96-well plate to achieve a final volume of 100 μL in each well (initial concentrations ranging from 64 to 0.0625 μg/mL). […] The optical density measurements were measured at 600 nm using a 96-well UV–vis plate reader (MultiSkan GO, Thermo Scientific). […]

MIC Escherichia coli ATCC 10798 [1] [µg/mL]	MIC Staphylococcus epidermidis ATCC 14990 [2] [µg/mL]	MIC Bacillus subtilis ATCC 6051 ([3]; ATCC 6051, 16 h) [µg/mL]	MIC Staphylococcus aureus (MSSA) ATCC 29213 [4] [µg/mL]	MIC Staphylococcus aureus (MRSA) ATCC 700698 [5] [µg/mL]	MIC values against the Gram-positive bacteria tested [6] [µg/mL]	MIC B. subtilis ([3]; ATCC 6051, 16 h) [µg/mL]	Structure (SMILES)	antibiotic activity in words against all other bacteria tested (all bacteria tested)	antibiotic activity in words against B. subtilis ([3]; concentration range tested up to 32 μg/mL)	MIC ([1]; Escherichia coli, ATCC10798, 16 h, read-out: MIC Escherichia coli ATCC 10798) [µg/mL]	MIC ([2]; Staphylococcus epidermidis, ATCC14990, 16 h, read-out: MIC Staphylococcus epidermidis ATCC 14990) [µg/mL]	MIC ([3]; Bacillus subtilis, ATCC6051, 16 h, read-out: MIC Bacillus subtilis ATCC 6051) [µg/mL]	MIC ([4]; Staphylococcus aureus, 16 h, read-out: MIC Staphylococcus aureus (MSSA) ATCC 29213) [µg/mL]	MIC ([5]; Staphylococcus aureus, 16 h, read-out: MIC Staphylococcus aureus (MRSA) ATCC 700698) [µg/mL]	fold reduced activity compared to the unswapped analogues 1, 2, 6, and 7 [6]
>32	2 (≈ 1.61 µM)	2 (≈ 1.61 µM)	4 (≈ 3.21 µM)	4 (≈ 3.21 µM)	2 to 4		CC[C@H](C)[C@H](NC(=O)[C@H](CO)NC(=O)[C@@H](NC(=O)[C@@H](Cc1ccccc1)NC)[C@@H](C)CC)C(=O)N[C@@H](CCC(N)=O)C(=O)N[C@H](C(=O)OC[C@H](N)C(=O)N[C@H]1C(=O)N[C@@H](C)C(=O)N[C@@H](CCCNC(=N)N)C(=O)N[C@@H]([C@@H](C)CC)C(=O)O[C@H]1C)[C@@H](C)CC [compound 8, Ile4,Gln5,[Ile6-O-Ser7],Arg10-teixobactin] (I: H-[dNMeF]ISIQI / II: H-S[dT]ARI; ester I:C-II:1, II:2-II:C)								2–4 fold
>32	1 (≈ 0.822 µM)	≤0.0313	2 (≈ 1.64 µM)	2 (≈ 1.64 µM)		≤ 0.0625	CC[C@H](C)[C@H](NC(=O)[C@@H](Cc1ccccc1)NC)C(=O)N[C@@H](CO)C(=O)N[C@H](CCC(N)=O)C(=O)N[C@@H](C(=O)N[C@H](C(=O)N[C@@H](CO)C(=O)N[C@H]1C(=O)N[C@@H](C)C(=O)N[C@@H](CCCCN)C(=O)N[C@@H]([C@@H](C)CC)C(=O)O[C@H]1C)[C@@H](C)CC)[C@@H](C)CC [compound 1, Lys10-teixobactin] (H-[dNMeF]IS[dQ][d(aIle)]IS[dT]AKI; ester 8-C)								

The remaining lines, values behind:

Structure (SMILES)	MIC Escherichia coli ATCC 10798 [1] [µg/mL]	MIC Staphylococcus epidermidis ATCC 14990 [2] [µg/mL]	MIC Bacillus subtilis ATCC 6051 ([3]; ATCC 6051, 16 h) [µg/mL]	MIC Staphylococcus aureus (MSSA) ATCC 29213 [4] [µg/mL]	MIC Staphylococcus aureus (MRSA) ATCC 700698 [5] [µg/mL]	MIC values against the Gram-positive bacteria tested [6] [µg/mL]	MIC B. subtilis ([3]; ATCC 6051, 16 h) [µg/mL]	antibiotic activity in words against all other bacteria tested (all bacteria tested)	antibiotic activity in words against B. subtilis ([3]; concentration range tested up to 32 μg/mL)	MIC ([1]; Escherichia coli, ATCC10798, 16 h, read-out: MIC Escherichia coli ATCC 10798) [µg/mL]	MIC ([2]; Staphylococcus epidermidis, ATCC14990, 16 h, read-out: MIC Staphylococcus epidermidis ATCC 14990) [µg/mL]	MIC ([3]; Bacillus subtilis, ATCC6051, 16 h, read-out: MIC Bacillus subtilis ATCC 6051) [µg/mL]	MIC ([4]; Staphylococcus aureus, 16 h, read-out: MIC Staphylococcus aureus (MSSA) ATCC 29213) [µg/mL]	MIC ([5]; Staphylococcus aureus, 16 h, read-out: MIC Staphylococcus aureus (MRSA) ATCC 700698) [µg/mL]	fold reduced activity compared to the unswapped analogues 1, 2, 6, and 7 [6]
CC[C@H](C)[C@H](NC(=O)CNCc1ccccc1)C(=O)N[C@@H](CO)C(=O)N[C@H](C(=O)N[C@@H](CCC(N)=O)C(=O)N[C@H](C(=O)OC[C@H](N)C(=O)N[C@H]1C(=O)N[C@@H](C)C(=O)N[C@@H](CCCCN)C(=O)N[C@@H]([C@@H](C)CC)C(=O)O[C@H]1C)[C@@H](C)CC)[C@@H](C)CC [compound 5, N-Bn-Gly1,Ile4,Gln5,[Ile6-O-Ser7],Lys10-teixobactin] (I: H-[Nphe]ISIQI / II: H-S[dT]AKI; ester I:C-II:1, II:2-II:C)	>32	>32	32 (≈ 26.6 µM)	>32	>32			inactive	only very weakly active						
CN[C@H](CC(C)C)C(=O)N[C@H]1C(=O)N[C@@H](CC(N)=O)C(=O)N[C@H]2C(=O)N[C@H]3C(=O)N[C@H](C(=O)N[C@H](C(=O)O)c4cc(O)cc(O)c4-c4cc3ccc4O)[C@H](O)c3ccc(c(Cl)c3)Oc3cc2cc(c3O[C@@H]2O[C@H](CO)[C@@H](O)[C@H](O)[C@H]2O[C@H]2C[C@](C)(N)[C@H](O)[C@H](C)O2)Oc2ccc(cc2Cl)[C@H]1O [vancomycin, reference compound]										> 32	1 to 2 (≈ 0.69 to 1.38 µM)	0.125 to 0.25 (≈ 0.0863 to 0.173 µM)	1 to 2 (≈ 0.69 to 1.38 µM)	4 (≈ 2.76 µM)	
CC[C@H](C)[C@H](NC(=O)[C@H](CO)NC(=O)[C@@H](NC(=O)[C@@H](Cc1ccccc1)NC)[C@@H](C)CC)C(=O)N[C@@H](CCC(N)=O)C(=O)N[C@H](C(=O)OC[C@H](N)C(=O)N[C@H]1C(=O)N[C@@H](C)C(=O)N[C@@H](CCCCN)C(=O)N[C@@H]([C@@H](C)CC)C(=O)O[C@H]1C)[C@@H](C)CC [compound 3, Ile4,Gln5,[Ile6-O-Ser7],Lys10-teixobactin] (I: H-[dNMeF]ISIQI / II: H-S[dT]AKI; ester I:C-II:1, II:2-II:C)	>32	4 (≈ 3.29 µM)	4 (≈ 3.29 µM)	8 (≈ 6.58 µM)	8 (≈ 6.58 µM)	4 to 8									2–4 fold
